According to ChEMBL document CHEMBL1201862, “PubChem BioAssay data set” (2004):
Active and inactive are the calls of the source. Rule as the data show it, for most assays here: actives have a measured EC50 and inactives only a lower limit.

How the values were obtained:
[1] = cytotoxicity toward DRD oncogenic fibroblasts, dose response, cell-based, non-viral oncogenic, luminescence (AID 1934); assay type: functional; details: Homo sapiens
[2] = cytotoxicity toward NIH3T3 fibroblasts, dose response, counter-screen, cell-based, ATP luminescence, mouse fibroblasts (AID 2010); assay type: functional;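 also: cells exposed to compound for about 90 hours before reading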
BJ [3] = assay: cytotoxicity toward BJ-TERT-LT-ST fibroblasts, dose response, cell-based, RAS-independent, luminescence (AID 1935); assay type: functional; details: Homo sapiens;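 also: BJ fibroblasts immortalized with TERT plus LT and ST oncogenes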
[4] = non-specific cell cytotoxicity, dose response, cytotoxicity control for PAX8 inhibitor project, plate reader, dry powder samples (AID 743021); assay type: functional, cell-based
[5] = biological target: T1, Heat shock factor protein 1 (Mus musculus, UniProt P38532); assay: inhibition of MG132-induced HSE-luciferase signal, confirmation, cell-based, NIH3T3, luminescence, dose retest (AID 2382); assay type: functional;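 also: NIH3T3 fibroblasts with HSF1-driven luciferase reporter stressed by proteasome inhibitor MG132; luminescence from HSF1-driven luciferase expression after 8 hours of MG132 stress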
T1 sequence (P38532 whole entry): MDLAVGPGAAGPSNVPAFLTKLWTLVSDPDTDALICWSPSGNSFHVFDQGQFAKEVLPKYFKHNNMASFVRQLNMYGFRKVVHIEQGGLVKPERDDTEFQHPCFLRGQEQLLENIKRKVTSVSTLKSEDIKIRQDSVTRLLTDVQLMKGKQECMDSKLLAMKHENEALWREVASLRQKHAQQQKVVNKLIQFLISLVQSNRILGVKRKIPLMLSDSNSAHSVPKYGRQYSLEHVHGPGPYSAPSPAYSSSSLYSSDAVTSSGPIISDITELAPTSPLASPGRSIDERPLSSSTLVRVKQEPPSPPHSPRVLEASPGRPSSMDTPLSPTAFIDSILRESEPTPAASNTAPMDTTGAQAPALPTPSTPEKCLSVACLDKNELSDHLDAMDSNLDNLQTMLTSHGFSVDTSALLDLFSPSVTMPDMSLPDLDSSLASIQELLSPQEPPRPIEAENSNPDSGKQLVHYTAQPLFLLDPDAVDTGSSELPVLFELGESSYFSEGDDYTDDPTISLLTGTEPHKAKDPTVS

[6] = biological target: T2, Replicative DNA helicase DnaB (Mycobacterium tuberculosis, UniProt P9WMR3); assay: DnaB intein splicing inhibitors, dose response, biochemical, cell-free fluorescence (AID 449749); assay type: functional
T2 sequence (P9WMR3 whole entry): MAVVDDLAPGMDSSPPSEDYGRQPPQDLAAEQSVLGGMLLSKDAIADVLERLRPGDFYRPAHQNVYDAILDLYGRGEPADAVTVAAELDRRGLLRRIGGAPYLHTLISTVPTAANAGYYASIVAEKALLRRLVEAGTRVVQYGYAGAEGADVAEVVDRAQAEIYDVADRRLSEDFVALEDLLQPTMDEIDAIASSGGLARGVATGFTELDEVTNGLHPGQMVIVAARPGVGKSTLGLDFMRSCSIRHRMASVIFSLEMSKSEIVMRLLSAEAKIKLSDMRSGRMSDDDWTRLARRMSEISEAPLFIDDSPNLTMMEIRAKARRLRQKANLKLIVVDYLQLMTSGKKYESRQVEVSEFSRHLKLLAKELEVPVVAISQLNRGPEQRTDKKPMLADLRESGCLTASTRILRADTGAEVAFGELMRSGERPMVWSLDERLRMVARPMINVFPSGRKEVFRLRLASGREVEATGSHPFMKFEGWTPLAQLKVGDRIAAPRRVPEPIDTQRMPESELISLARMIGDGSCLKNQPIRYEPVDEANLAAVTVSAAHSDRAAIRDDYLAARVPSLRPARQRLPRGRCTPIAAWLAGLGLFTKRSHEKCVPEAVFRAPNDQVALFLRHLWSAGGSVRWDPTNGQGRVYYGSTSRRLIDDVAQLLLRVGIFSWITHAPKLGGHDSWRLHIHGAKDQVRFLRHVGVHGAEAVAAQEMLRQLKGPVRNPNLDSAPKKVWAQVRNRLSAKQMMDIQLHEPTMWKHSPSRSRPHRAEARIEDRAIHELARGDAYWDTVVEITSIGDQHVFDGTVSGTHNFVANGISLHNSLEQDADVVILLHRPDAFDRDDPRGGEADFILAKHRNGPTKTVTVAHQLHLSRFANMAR

[7] = inhibitors of intracellular T. cruzi replication, confirmation, NIH3T3 host cells, beta-gal luminescence (AID 2044); assay type: functional, cell-based;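 also: intracellular parasites grown in NIH/3T3 mouse fibroblasts as host cells; luminescent beta-galactosidase reporter signal from transgenic T. cruzi replicating inside host cells; inhibitors lower the luminescence signal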
BJ [8] = assay: cytotoxicity toward BJ-TERT fibroblasts, dose response, cell-based, RAS-independent, luminescence (AID 1933); assay type: functional; details: Homo sapiens
Paired box protein Pax-8 = Paired box protein Pax-8 (Homo sapiens, UniProt Q06710); assay: inhibitors of PAX8-driven TPO luciferase reporter, dose response, RMG-I cells, cherry-pick (AID 687027); assay type: functional, cell-based;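 also: luciferase reporter driven by Pax8 target thyroperoxidase promoter measured by SteadyGlo luminescence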
Protein RecA = biological target: T3, Protein RecA (Mycobacterium tuberculosis, UniProt P9WHJ3); assay: Fluorescence Cell-Free Homogeneous Dose Retest to Identify Inhibitors of RecA-Intein Splicing Activity. [Related pubchem assays (depositor defined):AID2097, AID2223, AID489010, AID492950]; assay type: functional
T3 sequence (P9WHJ3 whole entry): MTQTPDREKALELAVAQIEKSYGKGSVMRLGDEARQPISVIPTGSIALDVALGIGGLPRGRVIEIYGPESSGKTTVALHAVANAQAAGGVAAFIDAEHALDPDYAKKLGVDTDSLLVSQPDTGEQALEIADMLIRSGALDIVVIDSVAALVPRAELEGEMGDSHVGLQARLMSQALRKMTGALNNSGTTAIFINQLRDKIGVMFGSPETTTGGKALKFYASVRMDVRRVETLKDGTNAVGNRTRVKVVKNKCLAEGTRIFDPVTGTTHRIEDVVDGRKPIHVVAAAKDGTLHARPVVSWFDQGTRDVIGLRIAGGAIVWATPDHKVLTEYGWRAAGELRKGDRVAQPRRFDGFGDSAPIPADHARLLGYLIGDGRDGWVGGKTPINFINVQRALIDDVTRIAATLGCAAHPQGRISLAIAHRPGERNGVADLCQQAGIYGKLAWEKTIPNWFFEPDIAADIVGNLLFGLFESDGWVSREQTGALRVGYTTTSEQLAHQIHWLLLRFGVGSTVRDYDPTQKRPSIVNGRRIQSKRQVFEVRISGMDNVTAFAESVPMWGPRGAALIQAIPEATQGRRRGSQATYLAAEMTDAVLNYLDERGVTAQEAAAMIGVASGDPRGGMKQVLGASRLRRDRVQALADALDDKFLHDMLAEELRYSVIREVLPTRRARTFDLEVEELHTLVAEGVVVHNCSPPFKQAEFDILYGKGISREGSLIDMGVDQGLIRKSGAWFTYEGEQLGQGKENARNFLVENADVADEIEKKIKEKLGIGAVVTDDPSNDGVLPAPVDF

BJ [9] = assay: cells; assay type: functional, cell-based; details: Homo sapiens
[10] = Luminescent dose response cell-based high throughput screening assay for inhibitors of the Janus kinase 2 mutant JAK2V617F. [Related pubchem assays: 1446 (Primary screen.), 1521 (Confirmation assay.), 1486 (Counter screen.)]; assay type: functional
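For IC50 in this document: cells exposed to compound for 72 h before the viability read.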

Paired box protein Pax-8, sequence (Q06710 whole entry): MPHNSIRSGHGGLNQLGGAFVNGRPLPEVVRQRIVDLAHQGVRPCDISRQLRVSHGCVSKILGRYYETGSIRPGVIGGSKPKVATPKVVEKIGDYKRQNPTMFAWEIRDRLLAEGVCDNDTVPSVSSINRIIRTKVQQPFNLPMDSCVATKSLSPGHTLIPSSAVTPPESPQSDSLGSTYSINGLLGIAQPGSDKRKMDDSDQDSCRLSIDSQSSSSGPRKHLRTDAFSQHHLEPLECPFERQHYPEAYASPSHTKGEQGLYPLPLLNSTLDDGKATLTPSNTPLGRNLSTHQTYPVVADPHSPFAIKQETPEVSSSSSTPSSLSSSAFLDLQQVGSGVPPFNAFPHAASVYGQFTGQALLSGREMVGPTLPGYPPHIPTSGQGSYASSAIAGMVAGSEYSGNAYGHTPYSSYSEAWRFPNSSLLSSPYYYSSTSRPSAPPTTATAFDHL

SMILES	EC50 [1]	EC50 [2]	EC50 (BJ [3])	AC50 [4]	EC50 [5]	AC50 [6]	EC50 [7]	EC50 (BJ [8])	AC50 (Paired box protein Pax-8)	EC50 (Protein RecA)	EC50 (BJ [9])	IC50 [10]
Cc1cccc(N(Cc2ccccc2)C(=O)CCl)c1	2.71 µM (inconclusive)	2.39 µM (active)	> 150 µM (inconclusive)	4.85 µM (active)	2.91 µM (active)	7.84 µM (active)	0.352 µM (active)	0.356 µM (inconclusive)	3.46 µM (active)	0.536 µM (active)	3.61 µM (active)	0.649 µM (active)
CCCCCCN(C(=O)CCl)c1ccccc1				7.01 µM (active)		7.25 µM (active)			6.26 µM (active)	4.45 µM (inconclusive)		1.19 µM (active)
